IC50 data for 32 compounds are collected here from US9682141B2, “Combination of kinase inhibitors and uses thereof” (INTELLIKINE LLC, priority 2011, dated 2017).

One may read the IC50 as the point on the concentration scale where inhibition reaches its midpoint.

What all share (type): biochemical
The target in assay [1] is PI3K α (Homo sapiens (Human), UniProt P42336). Briefly: PI 3-Kinase (human) HTRF assay, p110α/p85α. In general terms: TR-FRET usually uses a lanthanide donor and a delayed reading to cut background.
Sequence of PI3K α (P42336 whole entry): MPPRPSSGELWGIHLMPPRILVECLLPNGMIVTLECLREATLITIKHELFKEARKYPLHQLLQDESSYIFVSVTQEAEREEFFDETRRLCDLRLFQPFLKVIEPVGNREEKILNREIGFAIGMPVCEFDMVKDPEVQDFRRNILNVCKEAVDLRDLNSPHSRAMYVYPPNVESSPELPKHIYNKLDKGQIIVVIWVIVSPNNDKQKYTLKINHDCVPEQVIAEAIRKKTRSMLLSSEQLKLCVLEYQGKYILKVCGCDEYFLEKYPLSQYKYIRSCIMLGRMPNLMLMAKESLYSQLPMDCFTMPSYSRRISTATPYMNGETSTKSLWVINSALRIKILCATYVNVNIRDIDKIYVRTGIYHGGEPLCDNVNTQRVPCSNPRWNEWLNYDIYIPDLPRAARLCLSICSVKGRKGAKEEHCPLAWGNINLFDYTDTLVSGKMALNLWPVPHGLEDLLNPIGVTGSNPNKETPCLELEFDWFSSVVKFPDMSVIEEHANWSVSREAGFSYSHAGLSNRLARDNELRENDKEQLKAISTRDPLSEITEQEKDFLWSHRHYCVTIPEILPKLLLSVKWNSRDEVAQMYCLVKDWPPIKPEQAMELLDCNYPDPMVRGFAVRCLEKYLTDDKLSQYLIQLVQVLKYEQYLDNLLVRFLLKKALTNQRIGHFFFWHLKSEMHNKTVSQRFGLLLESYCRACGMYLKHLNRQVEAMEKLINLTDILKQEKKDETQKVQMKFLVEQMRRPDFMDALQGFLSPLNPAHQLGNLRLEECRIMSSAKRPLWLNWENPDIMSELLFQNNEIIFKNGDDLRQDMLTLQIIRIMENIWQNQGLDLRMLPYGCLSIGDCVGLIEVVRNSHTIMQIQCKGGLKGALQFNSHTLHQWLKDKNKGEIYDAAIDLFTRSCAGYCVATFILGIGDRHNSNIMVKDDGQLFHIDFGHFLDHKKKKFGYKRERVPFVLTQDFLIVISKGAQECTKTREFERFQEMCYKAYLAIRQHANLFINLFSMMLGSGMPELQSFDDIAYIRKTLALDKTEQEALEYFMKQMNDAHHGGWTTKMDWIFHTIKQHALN
Sequence of PI3K α (P27986 whole entry partner): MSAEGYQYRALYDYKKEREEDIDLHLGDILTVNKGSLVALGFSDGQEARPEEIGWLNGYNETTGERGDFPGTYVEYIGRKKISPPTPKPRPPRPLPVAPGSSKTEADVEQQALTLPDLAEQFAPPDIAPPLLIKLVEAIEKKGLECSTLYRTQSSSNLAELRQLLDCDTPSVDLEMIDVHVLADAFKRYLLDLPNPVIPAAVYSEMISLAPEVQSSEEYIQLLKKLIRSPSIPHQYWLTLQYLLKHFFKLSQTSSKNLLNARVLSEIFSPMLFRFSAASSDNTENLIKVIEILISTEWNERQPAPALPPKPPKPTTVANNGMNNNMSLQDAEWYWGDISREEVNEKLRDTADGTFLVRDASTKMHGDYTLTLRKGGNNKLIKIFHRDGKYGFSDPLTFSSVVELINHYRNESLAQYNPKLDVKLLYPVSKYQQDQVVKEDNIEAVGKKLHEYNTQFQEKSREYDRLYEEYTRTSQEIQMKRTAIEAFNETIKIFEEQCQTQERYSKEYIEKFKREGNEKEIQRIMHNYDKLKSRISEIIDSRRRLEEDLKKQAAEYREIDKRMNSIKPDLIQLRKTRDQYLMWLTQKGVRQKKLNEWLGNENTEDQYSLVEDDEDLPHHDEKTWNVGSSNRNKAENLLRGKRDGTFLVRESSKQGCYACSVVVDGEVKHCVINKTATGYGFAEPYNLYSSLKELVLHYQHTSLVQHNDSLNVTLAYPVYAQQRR
The target of assay [2] is PI3K δ (Homo sapiens (Human), UniProt O00329). Briefly: PI 3-Kinase (human) HTRF assay, p110δ/p85α.
Sequence of PI3K δ (O00329 whole entry): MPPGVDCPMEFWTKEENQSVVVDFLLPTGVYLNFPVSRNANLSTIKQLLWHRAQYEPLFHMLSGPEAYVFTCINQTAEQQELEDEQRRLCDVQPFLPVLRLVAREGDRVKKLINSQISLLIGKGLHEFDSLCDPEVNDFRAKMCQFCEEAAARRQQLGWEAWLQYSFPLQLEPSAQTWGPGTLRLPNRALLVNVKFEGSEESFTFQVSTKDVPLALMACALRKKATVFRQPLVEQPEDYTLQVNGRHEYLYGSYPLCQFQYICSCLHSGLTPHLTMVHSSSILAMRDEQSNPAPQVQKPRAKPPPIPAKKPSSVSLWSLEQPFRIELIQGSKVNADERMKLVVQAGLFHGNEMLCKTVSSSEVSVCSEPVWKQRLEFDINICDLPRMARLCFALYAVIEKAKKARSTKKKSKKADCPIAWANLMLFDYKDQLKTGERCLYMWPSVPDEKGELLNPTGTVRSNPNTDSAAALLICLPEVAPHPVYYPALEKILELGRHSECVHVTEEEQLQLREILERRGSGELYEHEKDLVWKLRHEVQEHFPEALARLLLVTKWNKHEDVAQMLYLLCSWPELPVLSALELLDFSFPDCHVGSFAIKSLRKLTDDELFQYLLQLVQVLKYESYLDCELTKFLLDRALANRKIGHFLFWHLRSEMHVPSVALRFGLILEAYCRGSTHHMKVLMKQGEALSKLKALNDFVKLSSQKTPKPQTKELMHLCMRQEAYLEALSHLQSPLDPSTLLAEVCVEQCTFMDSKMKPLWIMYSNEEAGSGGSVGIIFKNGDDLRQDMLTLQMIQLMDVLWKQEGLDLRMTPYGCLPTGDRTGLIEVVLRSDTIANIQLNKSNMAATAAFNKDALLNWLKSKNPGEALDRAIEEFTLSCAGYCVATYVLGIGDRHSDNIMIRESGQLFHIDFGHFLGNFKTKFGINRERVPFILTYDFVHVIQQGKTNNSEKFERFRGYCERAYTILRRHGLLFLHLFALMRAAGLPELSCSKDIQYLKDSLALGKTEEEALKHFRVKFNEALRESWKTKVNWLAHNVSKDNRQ
Sequence of PI3K δ (P27986 whole entry partner): as the sequence (P27986 whole entry partner) above
In assay [3] the target is PI3K β (Homo sapiens (Human), UniProt P42338). Description: PI 3-Kinase (human) HTRF assay, p110β/p85α.
Sequence of PI3K β (P42338 whole entry): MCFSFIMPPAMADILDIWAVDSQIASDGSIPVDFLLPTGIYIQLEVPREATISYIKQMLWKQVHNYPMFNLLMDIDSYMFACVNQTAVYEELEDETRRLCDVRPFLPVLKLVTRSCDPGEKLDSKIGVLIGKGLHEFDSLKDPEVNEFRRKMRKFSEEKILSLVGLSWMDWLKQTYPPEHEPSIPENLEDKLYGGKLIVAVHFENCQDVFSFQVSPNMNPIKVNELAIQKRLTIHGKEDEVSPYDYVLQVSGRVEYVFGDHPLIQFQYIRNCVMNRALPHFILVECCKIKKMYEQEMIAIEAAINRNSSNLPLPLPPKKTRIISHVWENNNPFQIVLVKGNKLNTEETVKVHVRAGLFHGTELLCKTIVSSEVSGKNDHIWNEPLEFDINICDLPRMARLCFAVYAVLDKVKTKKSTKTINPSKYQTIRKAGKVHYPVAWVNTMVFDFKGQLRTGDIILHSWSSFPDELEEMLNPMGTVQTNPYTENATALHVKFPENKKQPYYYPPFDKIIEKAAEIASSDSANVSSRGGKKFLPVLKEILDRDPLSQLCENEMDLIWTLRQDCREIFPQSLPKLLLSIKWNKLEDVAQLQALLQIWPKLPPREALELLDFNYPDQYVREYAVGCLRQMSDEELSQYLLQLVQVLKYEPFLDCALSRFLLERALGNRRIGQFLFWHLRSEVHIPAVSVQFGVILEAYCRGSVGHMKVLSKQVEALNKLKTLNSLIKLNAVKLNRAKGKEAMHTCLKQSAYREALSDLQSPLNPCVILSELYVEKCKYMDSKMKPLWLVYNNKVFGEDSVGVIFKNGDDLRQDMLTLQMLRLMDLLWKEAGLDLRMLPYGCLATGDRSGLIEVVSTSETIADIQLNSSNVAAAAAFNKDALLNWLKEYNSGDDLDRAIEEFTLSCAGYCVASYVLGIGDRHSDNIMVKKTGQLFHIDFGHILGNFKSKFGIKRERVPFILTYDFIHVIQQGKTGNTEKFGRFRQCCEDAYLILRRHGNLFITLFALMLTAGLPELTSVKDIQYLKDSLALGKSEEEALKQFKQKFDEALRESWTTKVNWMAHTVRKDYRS
Sequence of PI3K β (P27986 whole entry partner): as the sequence (P27986 whole entry partner) above
For assay [4], the target named is PI3K γ (Homo sapiens (Human), UniProt P48736). Description: PI 3-Kinase (human) HTRF assay, p110γ. Particulars: read-out: PI3K γ IC50.
Sequence of PI3K γ (P48736 whole entry): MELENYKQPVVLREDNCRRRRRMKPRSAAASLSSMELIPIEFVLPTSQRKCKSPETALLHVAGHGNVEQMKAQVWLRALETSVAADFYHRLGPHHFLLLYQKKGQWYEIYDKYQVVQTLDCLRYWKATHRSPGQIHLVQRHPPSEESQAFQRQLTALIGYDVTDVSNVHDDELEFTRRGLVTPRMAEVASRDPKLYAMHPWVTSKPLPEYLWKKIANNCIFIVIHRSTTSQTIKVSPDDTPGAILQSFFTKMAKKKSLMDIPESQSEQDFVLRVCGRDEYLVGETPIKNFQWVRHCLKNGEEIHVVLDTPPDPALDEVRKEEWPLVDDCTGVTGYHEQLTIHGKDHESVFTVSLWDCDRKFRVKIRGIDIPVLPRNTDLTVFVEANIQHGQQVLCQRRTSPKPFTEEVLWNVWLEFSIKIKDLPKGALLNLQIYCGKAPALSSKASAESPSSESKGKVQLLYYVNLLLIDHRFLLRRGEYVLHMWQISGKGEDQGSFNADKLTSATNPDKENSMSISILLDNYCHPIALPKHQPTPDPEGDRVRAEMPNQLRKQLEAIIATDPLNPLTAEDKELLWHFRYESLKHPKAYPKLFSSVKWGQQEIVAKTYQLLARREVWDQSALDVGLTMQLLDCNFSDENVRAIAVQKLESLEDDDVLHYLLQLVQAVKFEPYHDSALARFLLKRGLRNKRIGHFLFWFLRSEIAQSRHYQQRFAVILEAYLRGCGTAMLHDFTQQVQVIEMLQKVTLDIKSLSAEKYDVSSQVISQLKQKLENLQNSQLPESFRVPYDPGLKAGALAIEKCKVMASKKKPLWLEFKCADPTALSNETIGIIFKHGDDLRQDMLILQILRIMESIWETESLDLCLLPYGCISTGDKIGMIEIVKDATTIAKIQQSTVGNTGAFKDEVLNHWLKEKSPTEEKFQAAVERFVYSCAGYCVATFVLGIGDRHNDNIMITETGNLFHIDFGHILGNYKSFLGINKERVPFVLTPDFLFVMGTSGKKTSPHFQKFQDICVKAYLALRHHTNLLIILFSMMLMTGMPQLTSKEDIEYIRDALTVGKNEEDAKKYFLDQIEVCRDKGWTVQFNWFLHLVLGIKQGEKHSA

Consider `CS(=O)(=O)N1CCN(C2CN(c3cnc4ccc(-c5ccc6oc(N)nc6c5)nc4n3)C2)CC1`, for which the 50% inhibitory concentration (IC50) is under 0.1 µM in assay [1], under 10 µM in assay [2], over 10 µM in assay [3] and under 1 µM in assay [4].

Take `Cc1ncccc1-c1cnc2ccc(-c3ccc4oc(N)nc4c3)cc2n1`: the IC50 in assay [1] was under 1 µM; in assay [2], over 10 µM; in assay [3], over 10 µM; in assay [4], over 10 µM.

In the case of `CN1CCC(NC(=O)c2cnc3ccc(-c4ccc5oc(N)nc5c4)cn23)CC1`, the IC50 in assay [1] is under 0.1 µM; in assay [2], under 0.1 µM; in assay [3], under 1 µM; in assay [4], under 1 µM.

As to `C[C@@H]1COCCN1C1CN(c2cnc3ccc(-c4ccc5oc(N)nc5c4)nc3n2)C1`, the half-inhibitory concentration (IC50) in assay [1] is under 10 µM; in assay [2], over 10 µM; in assay [3] it was over 10 µM; in assay [4], under 10 µM.

Turning to `Nc1nc2cc(-c3ccc4ncc(N5CCN(CCO)CC5)nc4c3)ccc2o1`, the IC50 was under 0.1 µM in assay [1], under 10 µM in assay [2], under 0.1 µM in assay [3] and under 1 µM in assay [4].

For the compound `Nc1nc2cc(-c3ccc4ncc(C(=O)N5CCOCC5)cc4c3)ccc2o1`, the IC50 in assay [1] is under 10 µM; in assay [2] it was over 10 µM; in assay [3], over 10 µM; in assay [4] it was over 10 µM.

With `CC(C)N1CCN(c2cnc3ccc(-c4ccc5oc(N)nc5c4)nc3n2)CC1`, the IC50 was under 0.1 µM in assay [1], under 10 µM in assay [2], under 1 µM in assay [3] and under 1 µM in assay [4].

For the compound `Nc1nc2cc(-c3ccc4ncc(N5CC(N6C7CCC6COC7)C5)nc4n3)ccc2o1`, the IC50 in assay [1] was under 10 µM; in assay [2], over 10 µM; in assay [3] it was over 10 µM; in assay [4], over 10 µM.

Take `Nc1nc2cc(-c3cn4c(-c5cn[nH]c5)cnc4cn3)ccc2o1`: the half-maximal inhibitory concentration (IC50) is under 1 µM in assay [1], under 10 µM in assay [2], under 10 µM in assay [3] and under 1 µM in assay [4].

With `CN(CCN1CCOCC1)c1cnc2ccc(-c3ccc4oc(N)nc4c3)cc2n1`, the concentration for half-maximal inhibition (IC50) was under 1 µM in assay [1], over 10 µM in assay [2], under 10 µM in assay [3] and under 10 µM in assay [4].

Regarding `C[C@@H]1CN(c2cnc3ccc(-c4ccc5oc(N)nc5c4)cc3n2)C[C@H](C)O1`, the IC50 in assay [1] is under 1 µM; in assay [2], over 10 µM; in assay [3], over 10 µM; in assay [4] it was under 10 µM.

On to `Nc1nc2cc(-c3ccc4ncc(-c5ccc(N6CCOCC6)nc5)nc4c3)ccc2o1`, for which the IC50 was under 10 µM in assay [1], over 10 µM in assay [2], over 10 µM in assay [3] and over 10 µM in assay [4].

`Nc1nc2cc(-c3ccc4ncc(N5CCCC5)nc4c3)ccc2o1`: the IC50 in assay [1] is under 0.1 µM; in assay [2] it was under 1 µM; in assay [3], under 1 µM; in assay [4] it was under 0.1 µM.

With `Nc1nc2cc(-c3ccc4ncc(-c5ccccn5)nc4c3)ccc2o1`, the IC50 is under 1 µM in assay [1], over 10 µM in assay [2], under 10 µM in assay [3] and under 0.1 µM in assay [4].

`CC(=O)N1CCC(Nc2cnc3ccc(-c4ccc5oc(N)nc5c4)cc3n2)CC1`: the IC50 in assay [1] was under 0.1 µM; in assay [2], under 0.1 µM; in assay [3], under 10 µM; in assay [4] it was under 0.1 µM.

Take `Nc1nc2cc(-c3ccc4ncc(N5CC(N6C7CCC6COC7)C5)cc4n3)ccc2o1`: the IC50 is under 0.1 µM in assay [1], under 10 µM in assay [2], over 10 µM in assay [3] and under 1 µM in assay [4].

As to `Nc1nc2cc(-c3ccc4ncc(N5CCOCC5)n4n3)ccc2o1`, the IC50 in assay [1] is under 1 µM; in assay [2], over 10 µM; in assay [3] it was under 1 µM; in assay [4] it was under 10 µM.

For the compound `CC(=O)Nc1cn2cc(-c3ccc4nccc(-c5ccncc5)c4c3)ccc2n1` [Compound 19], the IC50 in assay [1], in assay [2], in assay [3] and in assay [4] was over 10 µM throughout.

Take `Nc1nc2cc(-c3ccc4ncc(C(=O)N5CCN(CC6CC6)CC5)n4c3)ccc2o1`: the IC50 was under 1 µM in assay [1], under 10 µM in assay [2], under 10 µM in assay [3] and under 10 µM in assay [4].

Regarding `Nc1nc2cc(-c3ccc4ncn(C5CCOCC5)c4c3)ccc2o1` [Compound 48], the half-inhibitory concentration (IC50) is under 10 µM in assay [1], over 10 µM in assay [2], over 10 µM in assay [3] and over 10 µM in assay [4].

Take `Nc1nc2cc(-c3ccc4nccc(-c5ccncc5)c4c3)ccc2s1`: the IC50 in assay [1], in assay [2], in assay [3] and in assay [4] was under 0.1 µM each time.

Take `CS(=O)(=O)CCN1CCN(c2cnc3ccc(-c4ccc5oc(N)nc5c4)cc3n2)CC1`: the 50% inhibitory concentration (IC50) in assay [1] is under 0.1 µM; in assay [2], under 10 µM; in assay [3], under 1 µM; in assay [4], under 1 µM.

For the compound `Cc1nc2ccc(-c3ccc4oc(N)nc4c3)cn2c1C(=O)N1CCN(C)CC1`, the IC50 in assay [1], in assay [2], in assay [3] and in assay [4] was over 10 µM each time.

Consider `CC(C)(C)N1CCN(c2cnc3ccc(-c4ccc5oc(N)nc5c4)cc3n2)CC1`, for which the concentration for half-maximal inhibition (IC50) was under 0.1 µM in assay [1], under 1 µM in assay [2], under 1 µM in assay [3] and under 1 µM in assay [4].

On to `Nc1nc2cc(-c3ccc4ncc(C(=O)N5CCCC5)n4c3)ccc2o1`, for which the IC50 in assay [1] is under 0.1 µM; in assay [2] it was under 1 µM; in assay [3], under 10 µM; in assay [4], under 0.1 µM.

In the case of `CC(C)(N)C(=O)N1CCN(c2ccc3ncc(-c4ccc5oc(N)nc5c4)cc3n2)CC1`, the IC50 is under 10 µM in assay [1], over 10 µM in assay [2], over 10 µM in assay [3] and under 10 µM in assay [4].

For `Nc1nc2cc(-c3cn4c(C(=O)N5CCOCC5)cnc4cn3)ccc2o1`, the half-inhibitory concentration (IC50) in assay [1], in assay [2], in assay [3] and in assay [4] was over 10 µM each time.

As for `Cc1ccc(-c2cnc3ccc(-c4ccc5oc(N)nc5c4)cc3n2)cn1`, the IC50 in assay [1] is under 0.1 µM; in assay [2] it was over 10 µM; in assay [3], over 10 µM; in assay [4], under 0.1 µM.

For `CC(=O)Nc1nc2ccc(-c3nc(N4CCOCC4)c4sc(CN5CCN(S(C)(=O)=O)CC5)cc4n3)cc2s1`, the IC50 in assay [1], in assay [2], in assay [3] and in assay [4] was over 10 µM throughout.

With `C[C@H]1CN(c2cnc3ccc(-c4ccc5oc(N)nc5c4)cc3n2)CCN1`, the IC50 in assay [1] was under 0.1 µM; in assay [2], under 1 µM; in assay [3], under 0.1 µM; in assay [4] it was under 1 µM.

As to `Nc1nc2ccc(-c3ccc4ncc(N5CCOCC5)nc4c3)cc2o1`, the IC50 in assay [1] is under 0.1 µM; in assay [2], over 10 µM; in assay [3] it was under 1 µM; in assay [4], under 1 µM.

Take `Nc1nc2cc(-c3ccc4ncc(N5CCS(=O)(=O)CC5)nc4c3)ccc2o1`: the IC50 in assay [1] is under 0.1 µM; in assay [2], over 10 µM; in assay [3], over 10 µM; in assay [4], under 0.1 µM.
